Reference: PMC2994747, “Molecular Characterization of c-Abl/c-Src Kinase Inhibitors Targeted against Murine Tumour Progenitor Cells that Express Stem Cell Markers” (PLoS ONE, 2010)
Where two headings read alike, the source gives them in different places.

Legend:
[1] = system: A2C12; assay: MTS cell viability assay; assay type: cell-based, mouse
Procedure: (§1) Three human and eleven murine cancer cell lines were used. The human NSCLC cell line A549 (ACC 107) and the human colorectal carcinoma cell line CaCo2 (ACC 169) were obtained from Deutsche Sammlung von Mikroorganismen und Zellkulturen (DSMZ, Braunschweig, Germany). The human hepatocellular carcinoma cell line HepG2 (HB-8065) was obtained from American Type Culture Collection (Manassas, VA, USA). The 11 murine NSCLC cell lines were established as described recently. Cells were grown in monolayer cultures in DMEM containing 10% foetal calf serum, 4 mmol/l L-glutamine and 2% Penicillin/Streptomycin at 37°C in a humidified atmosphere of 95% air and 5% CO2.
(§2) Cell culture viability was monitored by CellTiter96® AQueous One Solution Cell Proliferation Assay (Promega GmbH, Mannheim, Germany). The cells were seeded in triplicates in 96-well microtitre plates and treated with the dual kinase inhibitors or vehicle (0.2% DMSO). After 24 h or 96 h of treatment the MTS tetrazolium reagent was added to the cells and incubated for 1 h. Absorbance at 490 nm was assayed with a Victor3 Wallac 1420 Multilabel counter (PerkinElmer, Waltham, MA, USA).

[2] = system: BetaD5; assay: MTS cell viability assay; assay type: cell-based, mouse
Procedure: as §1, §2

[3] = system: GammaA3; assay: MTS cell viability assay; assay type: cell-based, mouse
Procedure: as §1, §2

[4] = system: GammaD12; assay: MTS cell viability assay; assay type: cell-based, mouse; conditions: MTS
Procedure: as §1, §2

[5] = system: A549; assay: MTS cell viability assay; assay type: cell-based, human
Procedure: as §1, §2

[6] = system: CaCo2; assay: MTS cell viability assay; assay type: cell-based, human
Procedure: as §1, §2

[7] = system: HepG2; assay: MTS cell viability assay; assay type: cell-based, human
Procedure: as §1, §2

[8] = system: A2C12; assay: Cell cycle analysis by flow cytometry; assay type: cell-based, mouse; conditions: IC50 concentration, 96 h
Procedure: (§3) CycleTEST™ PLUS DNA Reagent Kit (Becton Dickinson GmbH, Heidelberg, Germany) for cell cycle analysis was used, according to the instructions of the manufacturer. Briefly, the cells were harvested with trypsin, washed with PBS, and resuspended in CycleTEST Buffer. The cells were centrifuged and resuspended in solution A. After incubation for 10 min at room temperature, solution B was added and incubated. After adding solution C, the samples were incubated at 4°C protected from light. The samples were stored on ice and protected from light until analysis by FACScan flow cytometer (Becton Dickinson GmbH, Heidelberg, Germany).

[9] = system: BetaD5; assay: Cell cycle analysis by flow cytometry; assay type: cell-based, mouse; conditions: IC50 concentration, 96 h
Procedure: as §3

[10] = system: GammaA3; assay: Cell cycle analysis by flow cytometry; assay type: cell-based, mouse; conditions: IC50 concentration, 96 h
Procedure: as §3

[11] = system: GammaD12; assay: Cell cycle analysis by flow cytometry; assay type: cell-based, mouse; conditions: IC50 concentration, 96 h
Procedure: as §3

[12] = system: A549; assay: Cell cycle analysis by flow cytometry; assay type: cell-based, human; conditions: IC50 concentration, 96 h
Procedure: as §3

[13] = system: CaCo2; assay: Cell cycle analysis by flow cytometry; assay type: cell-based, human; conditions: IC50 concentration, 96 h
Procedure: as §3

[14] = system: HepG2; assay: Cell cycle analysis by flow cytometry; assay type: cell-based, human; conditions: IC50 concentration, 96 h
Procedure: as §3

[15] = 24 h, read-out: Calculated IC50 after single treatment for 24 h
[16] = 96 h, read-out: Calculated IC50 after daily treatment for 96 h

Row | Structure (SMILES) | IC50 [1, 15] [µM] | IC50 [1, 16] [µM] | IC50 [2, 15] [µM] | IC50 [2, 16] [µM] | IC50 [3, 15] [µM] | IC50 [3, 16] [µM] | IC50 [4, 15] [µM] | IC50 [4, 16] [µM] | IC50 [5, 15] [µM] | IC50 [5, 16] [µM] | IC50 [6, 15] [µM] | IC50 [6, 16] [µM] | IC50 [7, 15] [µM] | IC50 [7, 16] [µM] | Cells in G1 phase [8] [%] | Cells in G2 phase [8] [%] | Cells in S phase [8] [%] | Cells in G1 phase [9] [%] | Cells in G2 phase [9] [%] | Cells in S phase [9] [%] | further results
1 | CSc1nc(NCc2ccccc2)c2cnn(CC(Cl)c3ccccc3)c2n1 (centres unmarked) [Si34] | 32.8 ± 4.8 | 8.3 ± 0.3 | 37 ± 2.3 | 9.6 ± 0.2 | 25.2 ± 3.1 | 10.7 ± 0.6 | 23.2 ± 2.5 | 8.8 ± 1.4 | 69.5 ± 27.7 | 10.4 ± 0.4 | 58.2 ± 4.2 | 5.9 ± 0.1 | 58.5 ± 3 | 26.7 ± 4.8 | 74.5 | 9.7 | 15.7 | 65.8 | 23.1 | 11.1 | Cells in G1 phase [10]: 68.6%; Cells in G2 phase [10]: 16.8%; Cells in S phase [10]: 14.6%; Cells in G1 phase [11]: 36.2%; Cells in G2 phase [11]: 7.9%; Cells in S phase [11]: 55.9%; Cells in G1 phase [12]: 67.3%; Cells in G2 phase [12]: 5.6%; Cells in S phase [12]: 27.1%; Cells in G1 phase [13]: 52.9%; Cells in G2 phase [13]: 10.5%; Cells in S phase [13]: 36.7%; Cells in G1 phase [14]: 52%; Cells in G2 phase [14]: 13.2%; Cells in S phase [14]: 34.7%
2 | CSc1nc(NCCc2ccccc2)c2cnn(CC(Cl)c3ccc(F)cc3)c2n1 (centres unmarked) [Si66] | 23.7 ± 2.2 | 6.9 ± 0.4 | 20.7 ± 0.4 | 10.3 ± 0.3 | 23.7 ± 2 | 9.1 ± 0.2 | 14.2 ± 1.7 | 4.8 ± 0.4 | 21.6 ± 2.6 | 7.1 ± 0.1 | 44.7 ± 5.9 | 6 ± 0.1 | 44.7 ± 5.9 | 8.2 ± 0.6 | 65.3 | 11.8 | 22.9 | 52.7 | 25.6 | 21.7 | Cells in G1 phase [10]: 58.4%; Cells in G2 phase [10]: 18.5%; Cells in S phase [10]: 23.1%; Cells in G1 phase [11]: 32.1%; Cells in G2 phase [11]: 6.7%; Cells in S phase [11]: 61.5%; Cells in G1 phase [12]: 68.6%; Cells in G2 phase [12]: 5.3%; Cells in S phase [12]: 26.1%; Cells in G1 phase [13]: 61%; Cells in G2 phase [13]: 5.8%; Cells in S phase [13]: 33.3%; Cells in G1 phase [14]: 61.1%; Cells in G2 phase [14]: 9.2%; Cells in S phase [14]: 29.8%
3 | CSc1nc(Nc2cccc(F)c2)c2cnn(CC(Cl)c3ccc(F)cc3)c2n1 (centres unmarked) [Si93] | 16.9 ± 0.9 | 6.5 ± 0.3 | 13.8 ± 2 | 10.4 ± 0.5 | 15.6 ± 0.6 | 7.7 ± 0.4 | 11.8 ± 0.4 | 8.8 ± 0.3 | 21.5 ± 4.2 | 6.5 ± 0.2 | 65.6 ± 2.7 | 6.4 ± 0.1 | 65.6 ± 2.7 | 19.1 ± 1.6 | 56.8 | 14.6 | 28.6 | 42.4 | 25.2 | 22.1 | Cells in G1 phase [10]: 76.1%; Cells in G2 phase [10]: 16.6%; Cells in S phase [10]: 7.2%; Cells in G1 phase [11]: 39.5%; Cells in G2 phase [11]: 14.7%; Cells in S phase [11]: 45.8%; Cells in G1 phase [12]: 72.6%; Cells in G2 phase [12]: 5%; Cells in S phase [12]: 22.4%; Cells in G1 phase [13]: 59.3%; Cells in G2 phase [13]: 9.5%; Cells in S phase [13]: 31.1%; Cells in G1 phase [14]: 55%; Cells in G2 phase [14]: 9.6%; Cells in S phase [14]: 35.4%
4 | Fc1ccc(C(Cl)Cn2ncc3c(Nc4cccc(Cl)c4)ncnc32)cc1 (centres unmarked) [Si104] | 16.2 ± 1 | 6.5 ± 0.3 | 12.6 ± 2.6 | 12.4 ± 1 | 18.3 ± 0.7 | 11.4 ± 0.3 | 13.2 ± 0.9 | 9.2 ± 0.5 | 17.8 ± 2.6 | 6.8 ± 0.1 | 40.8 ± 1.7 | 5.8 ± 0.2 | 40.9 ± 1.7 | 10.3 ± 0.7 | 45.8 | 13.8 | 40.4 | 57.4 | 25.3 | 17.3 | Cells in G1 phase [10]: 61.9%; Cells in G2 phase [10]: 16.9%; Cells in S phase [10]: 21.2%; Cells in G1 phase [11]: 35.3%; Cells in G2 phase [11]: 7.8%; Cells in S phase [11]: 56.9%; Cells in G1 phase [12]: 68.1%; Cells in G2 phase [12]: 5.5%; Cells in S phase [12]: 26.4%; Cells in G1 phase [13]: 51%; Cells in G2 phase [13]: 10.9%; Cells in S phase [13]: 38.1%; Cells in G1 phase [14]: 56.2%; Cells in G2 phase [14]: 8.1%; Cells in S phase [14]: 35.6%
